Where a name gives a salt, the structure may show the parent alone.
Molecular target: T1, human NHE3 (Homo sapiens, UniProt P48764)
T1 sequence (P48764 26-834): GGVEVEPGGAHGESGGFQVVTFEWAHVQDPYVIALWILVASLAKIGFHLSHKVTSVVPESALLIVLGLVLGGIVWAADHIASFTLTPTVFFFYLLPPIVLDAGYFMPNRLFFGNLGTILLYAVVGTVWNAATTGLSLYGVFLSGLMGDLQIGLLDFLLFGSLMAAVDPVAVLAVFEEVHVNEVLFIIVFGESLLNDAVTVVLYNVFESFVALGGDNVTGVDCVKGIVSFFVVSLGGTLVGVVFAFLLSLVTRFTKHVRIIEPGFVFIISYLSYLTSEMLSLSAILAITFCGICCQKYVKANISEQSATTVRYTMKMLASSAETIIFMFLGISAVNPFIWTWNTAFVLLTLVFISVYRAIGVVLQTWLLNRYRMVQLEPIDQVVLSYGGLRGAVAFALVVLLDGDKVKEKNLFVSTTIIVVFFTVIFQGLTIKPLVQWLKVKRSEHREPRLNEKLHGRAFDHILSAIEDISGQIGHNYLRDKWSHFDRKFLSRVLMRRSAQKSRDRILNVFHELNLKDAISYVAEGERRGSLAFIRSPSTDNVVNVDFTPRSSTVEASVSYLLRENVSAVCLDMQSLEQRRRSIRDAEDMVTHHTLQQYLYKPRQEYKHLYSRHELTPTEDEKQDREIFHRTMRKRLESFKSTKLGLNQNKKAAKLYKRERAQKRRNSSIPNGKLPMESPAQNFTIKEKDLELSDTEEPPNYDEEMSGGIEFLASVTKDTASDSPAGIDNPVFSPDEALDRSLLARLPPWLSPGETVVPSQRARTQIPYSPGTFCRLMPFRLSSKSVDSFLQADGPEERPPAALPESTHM
Assay: NHE3 inhibition test (recovery of intracellular pH in cell line stably expressing human NHE3)
Type: cell-based
Details: OK cells deficient in endogenous NHE stably expressing human NHE3; BCECF fluorescence, initial rate of pH recovery; read-out: human NHE3 inhibitory activity IC50
Experimental: (1) Preparation of Cell Line Deficient in Endogenous NHE
The cell line deficient in endogenous NHE was prepared according to the method of Jacques Pouyssegur et al. (Proc. Natl. Acad. Sci. USA. 1984, Vol. 81, 4833-4837) using opossum kidney (OK) cells (ATCC).
(2) Preparation of Expression Plasmid and Cell Line Stably Expressing Human NHE3
The expression plasmid was constructed by inserting a human NHE3 (SLC9A3, Accession No. NM_004174) cDNA sequence (GeneCopoeia, Inc.) into a pcDNA3.2/V5-DEST vector (Life Technologies Corp.).
The OK cells deficient in endogenous NHE were transfected with the constructed human NHE3 expression plasmid to prepare stably expressing cells. The transfection was carried out by electroporation using a Nucleofector 2b device (Lonza Group Ltd.). A stably expressing cell line was selected in medium supplemented with 500 μg/mL Geneticin (Life Technologies Corp.) and isolated.
NHE3 activity measurement method using cell: The activity was determined by using the NHE3-mediated recovery of intracellular pH occurring after intracellular acidification, as an index. The intracellular pH was measured by a partial modification of the pH-sensitive fluorescent indicator method reported by Tsien et al. (Proc. Natl. Acad. Sci. USA., 1984, 81, 7436-7440).
The cell line stably expressing human NHE3 was inoculated on a poly-D-lysine-coated 96-well plate (Greiner Bio-one) and cultured overnight. […] Then, Hank's balanced salt buffer solution containing 0.25 μM BCECF-AM (Dojindo Laboratories) was added to the cells, which were then incubated at 37° C. for 30 minutes. […] The cells thus incubated in the NH4Cl buffer solution were washed with NH4Cl-free buffer solution (133.8 mM choline chloride, […], 5 mM glucose, 4.7 mM KCl, 1.25 mM CaCl2, 1.25 mM MgCl2, 0.97 mM K2HPO4, 0.23 mM KH2PO4, pH 7.4) to decrease the intracellular pH. After the washing step, 70 μL of a test compound solution prepared with the NH4Cl-free buffer solution was added to the cells, and 70 iμL of sodium ion-containing buffer solution (133.8 mM NaCl, 10 mM HEPES, 5 mM glucose, 4.7 mM KCl, 1.25 mM CaCl2, 1.25 mM MgCl2, 0.97 mM Na2HPO4, 0.23 mM NaH2PO4, pH 7.4) was added thereto in a measurement system FDSS6000 (Hamamatsu Photonics K.K.) to start the recovery of pH. The recovery of intracellular pH was monitored using BCECF fluorescence (excitation wavelength: 480 nm, fluorescence wavelength: 520 to 560 nm), and the initial rate of the pH recovery was plotted. The recovery of pH without test compound was defined as the maximum recovery, and the test compound concentration necessary to inhibit 50% of the maximum recovery was calculated as an IC50 value.

Row | IC50 [nM] | SMILES
1 | 5.5 | CN1Cc2c(Cl)cc(Cl)cc2[C@H](c2cccc(-c3nnc(CCOCCOCCNC(=O)NCCCCNC(=O)NCCOCCOCCc4nnc(-c5cccc([C@@H]6CN(C)Cc7c(Cl)cc(Cl)cc76)c5)o4)o3)c2)C1 [Example 7-23, 1,1′-Butane-1,4-diylbis[3-(2-{2-[2-(5-{3-[(4S)-6,8-dichloro-2-methyl-1,2,3,4-tetrahydroisoquinolin-4-yl]phenyl}-1,3,4-oxadiazol-2-yl)ethoxy]ethoxy}ethyl)urea]tetraformate]
2 | 13.6 | CN1Cc2c(Cl)cc(Cl)cc2[C@H](c2cccc(-c3cc(OCCOCCOCCOCCNC(=O)Nc4ccc(NC(=O)NCCOCCOCCOCCOc5cc(-c6cccc([C@@H]7CN(C)Cc8c(Cl)cc(Cl)cc87)c6)ncn5)cc4)ncn3)c2)C1 [Example 7-25, 1,1′-Benzene-1,4-diylbis(3-{2-[2-(2-{2-[(6-{3-[(4S)-6,8-dichloro-2-methyl-1,2,3,4-tetrahydroisoquinolin-4-yl]phenyl}pyrimidin-4-yl)oxy]ethoxy}ethoxy)ethoxy]ethyl}urea) hydrochloride]
3 | 5.2 | CN1Cc2c(Cl)cc(Cl)cc2[C@H](c2cccc(-c3cn(CCOCCOCCOCCNC(=O)NCCOCCOCCNC(=O)NCCOCCOCCOCCn4cc(-c5cccc([C@@H]6CN(C)Cc7c(Cl)cc(Cl)cc76)c5)nn4)nn3)c2)C1 [Example 7-26, 1,1′-[Ethane-1,2-diylbis(oxyethane-2,1-diyl)]bis {3-[2-(2-{2-[2-(4-{3-[(4S)-6,8-dichloro-2-methyl-1,2,3,4-tetrahydroisoquinolin-4-yl]phenyl}-1H-1,2,3-triazol-1-yl)ethoxy]ethoxy}ethoxy)ethyl]urea}hydrochloride]
4 | 11.3 | CN1Cc2c(Cl)cc(Cl)cc2[C@H](c2cccc(-c3cn(CCOCCOCCOCCNC(=O)NCCCCCCNC(=O)NCCOCCOCCOCCn4cc(-c5cccc([C@@H]6CN(C)Cc7c(Cl)cc(Cl)cc76)c5)nn4)nn3)c2)C1 [Example 7-27, 1,1′-Hexane-1,6-diylbis {3-[2-(2-{2-[2-(4-{3-[(4S)-6,8-dichloro-2-methyl-1,2,3,4-tetrahydroisoquinolin-4-yl]phenyl}-1H-1,2,3-triazol-1-yl)ethoxy]ethoxy}ethoxy)ethyl]urea}hydrochloride]
5 | 7.3 | CN1Cc2c(Cl)cc(Cl)cc2[C@H](c2cccc(-c3cn(CCOCCOCCOCCNC(=O)NCCCCCCCCNC(=O)NCCOCCOCCOCCn4cc(-c5cccc([C@@H]6CN(C)Cc7c(Cl)cc(Cl)cc76)c5)nn4)nn3)c2)C1 [Example 7-28, 1,1′-Octane-1,8-diylbis {3-[2-(2-{2-[2-(4-{3-[(4S)-6,8-dichloro-2-methyl-1,2,3,4-tetrahydroisoquinolin-4-yl]phenyl}-1H-1,2,3-triazol-1-yl)ethoxy]ethoxy}ethoxy)ethyl]urea}hydrochloride]
6 | 12.4 | CN1Cc2c(Cl)cc(Cl)cc2[C@H](c2cccc(-c3cc(OCCOCCOCCOCCNC(=O)NCCCCNC(=O)NCCOCCOCCOCCOc4cc(-c5cccc([C@@H]6CN(C)Cc7c(Cl)cc(Cl)cc76)c5)ncn4)ncn3)c2)C1 [Example 7-31, 1,1′-Butane-1,4-diylbis(3-{2-[2-(2-{2-[(6-{3-[(4S)-6,8-dichloro-2-methyl-1,2,3,4-tetrahydroisoquinolin-4-yl]phenyl}pyrimidin-4-yl)oxy]ethoxy}ethoxy)ethoxy]ethyl}urea) hydrochloride]
7 | 18.1 | CN1Cc2c(Cl)cc(Cl)cc2[C@H](c2cccc(-c3cnnc(NCCOCCOCCOCCNC(=O)NCCCCNC(=O)NCCOCCOCCOCCNc4cc(-c5cccc([C@@H]6CN(C)Cc7c(Cl)cc(Cl)cc76)c5)cnn4)c3)c2)C1 [Example 7-32, 1,1′-Butane-1,4-diylbis(3-{2-[2-(2-{2-[(5-{3-[(4S)-6,8-dichloro-2-methyl-1,2,3,4-tetrahydroisoquinolin-4-yl]phenyl}pyridazin-3-yl)amino]ethoxy}ethoxy)ethoxy]ethyl}urea) tetrahydrochloride]

More lines, now with the values behind:

Row | SMILES | IC50 [nM]
8 | CN1Cc2c(Cl)cc(Cl)cc2[C@H](c2cccc(-c3cnnc(NCCOCCOCCNC(=O)NCCCCNC(=O)NCCOCCOCCNc4cc(-c5cccc([C@@H]6CN(C)Cc7c(Cl)cc(Cl)cc76)c5)cnn4)c3)c2)C1 [Example 7-13, 1,1′-Butane-1,4-diylbis {3-[2-(2-(2-{2-[(5-{3-[(4S)-6,8-dichloro-2-methyl-1,2,3,4-tetrahydroisoquinolin-4-yl]phenyl}pyridazin-3-yl)amino]ethoxy}ethoxy)ethyl]urea}tetrahydrochloride] | 12
9 | CN1Cc2c(Cl)cc(Cl)cc2[C@H](c2cccc(-c3cc(NCCOCCOCCNC(=O)Nc4ccc(NC(=O)NCCOCCOCCNc5cc(-c6cccc([C@@H]7CN(C)Cc8c(Cl)cc(Cl)cc87)c6)ncn5)cc4)ncn3)c2)C1 [Example 7-14, 1,1′-Benzene-1,4-diylbis {3-[2-(2-{2-[(6-{3-[(4S)-6,8-dichloro-2-methyl-1,2,3,4-tetrahydroisoquinolin-4-yl]phenyl}pyrimidin-4-yl)amino]ethoxy}ethoxy)ethyl]urea} trifluoroacetate] | 13.9
10 | CN1Cc2c(Cl)cc(Cl)cc2[C@H](c2cccc(-c3ccc(NCCOCCOCCOCCNC(=O)NCCCCNC(=O)NCCOCCOCCOCCNc4ccc(-c5cccc([C@@H]6CN(C)Cc7c(Cl)cc(Cl)cc76)c5)cn4)nc3)c2)C1 [Example 7-17, 1,1′-Butane-1,4-diylbis(3-{2-[2-(2-{2-[(5-{3-[(4S)-6,8-dichloro-2-methyl-1,2,3,4-tetrahydroisoquinolin-4-yl]phenyl}pyridin-2-yl)amino]ethoxy}ethoxy)ethoxy]ethyl}urea) hydrochloride] | 4.4
11 | CN1Cc2c(Cl)cc(Cl)cc2[C@H](c2cccc(-c3cncc(NCCOCCOCCNC(=O)NCCCCNC(=O)NCCOCCOCCNc4cncc(-c5cccc([C@@H]6CN(C)Cc7c(Cl)cc(Cl)cc76)c5)n4)n3)c2)C1 [Example 7-20, 1,1′-Butane-1,4-diylbis{3-[2-(2-{2-[(6-{3-[(4S)-6,8-dichloro-2-methyl-1,2,3,4-tetrahydroisoquinolin-4-yl]phenyl}pyrazin-2-yl)amino]ethoxy}ethoxy)ethyl]urea}pentahydrochloride] | 7.5
12 | CN1Cc2c(Cl)cc(Cl)cc2[C@H](c2cccc(-c3nnc(CCOCCOCCNC(=O)NCCCCNC(=O)NCCOCCOCCc4nnc(-c5cccc([C@@H]6CN(C)Cc7c(Cl)cc(Cl)cc76)c5)[nH]4)[nH]3)c2)C1 [Example 7-21, 1,1′-Butane-1,4-diylbis[3-(2-{2-[2-(5-{3-[(4S)-6,8-dichloro-2-methyl-1,2,3,4-tetrahydroisoquinolin-4-yl]phenyl}-4H-1,2,4-triazol-3-yl)ethoxy]ethoxy}ethyl)urea]diformate] | 3.8
13 | CN1Cc2c(Cl)cc(Cl)cc2[C@H](c2cccc(-c3nnc(CCOCCOCCOCCNC(=O)NCCCCNC(=O)NCCOCCOCCOCCc4nnc(-c5cccc([C@@H]6CN(C)Cc7c(Cl)cc(Cl)cc76)c5)[nH]4)[nH]3)c2)C1 [Example 7-22, 1,1′-Butane-1,4-diylbis {3-[2-(2-{2-[2-(5-{3-[(4S)-6,8-dichloro-2-methyl-1,2,3,4-tetrahydroisoquinolin-4-yl]phenyl}-4H-1,2,4-triazol-3-yl)ethoxy]ethoxy}ethoxy)ethyl]urea} diformate] | 5.7

Source: patent US9932331B2, “Phenyl tetrahydroisoquinoline compound substituted with heteroaryl” (TAISHO PHARMACEUTICAL CO., LTD, priority 2014, dated 2018)
